The values below come from US12552755B2, “Cinnamic amide derivative having FXR activating effect, pharmaceutical composition containing the same as active ingredient, and method for preparing the same” (KYUNGSUNG UNIVERSITY INDUSTRY COOPERATION FOUNDATION, priority 2019, dated 2026).

SMILES strings stand for the structures.

This assay addresses T1, farnesol X receptor (FXR) (Homo sapiens, UniProt Q96RI1).
T1 construct: endogenous in cells; host or cells: HepG2
T1 sequence (Q96RI1 1-486): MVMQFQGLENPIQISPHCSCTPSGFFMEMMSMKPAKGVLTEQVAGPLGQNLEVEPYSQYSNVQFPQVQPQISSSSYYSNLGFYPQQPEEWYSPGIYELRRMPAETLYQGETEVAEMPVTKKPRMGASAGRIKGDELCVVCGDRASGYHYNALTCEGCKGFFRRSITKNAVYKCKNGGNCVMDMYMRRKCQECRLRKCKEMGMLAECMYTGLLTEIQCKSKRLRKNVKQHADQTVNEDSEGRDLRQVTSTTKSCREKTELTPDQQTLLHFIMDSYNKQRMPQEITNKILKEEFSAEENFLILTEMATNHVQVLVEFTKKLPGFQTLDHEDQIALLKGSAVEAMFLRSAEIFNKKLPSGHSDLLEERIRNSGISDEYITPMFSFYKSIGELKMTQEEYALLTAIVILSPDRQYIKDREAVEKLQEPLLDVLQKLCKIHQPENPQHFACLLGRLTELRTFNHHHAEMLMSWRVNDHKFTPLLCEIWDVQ
Put plainly: Farnesol X receptor (FXR) reporter gene assay (dual luciferase) in HepG2 cells. Type of assay: cell-based. The following applies: for fold induction at 10 µM: HepG2 cells, drug treatment 24 hours, firefly/renilla luciferase ratio, Con = 1.00; for FXR activating effect compared with GW4064: statement on Table 4 data. The method, then: HepG2 cells were purchased from ATCC (Manassas, VA, USA) and cultured in Dulbecco's modified Eagle's medium (DMEM; Hyclone) containing 10% fetal bovine serum (FBS, Hyclone, Logan, UT, USA), 50 units/mL penicillin (Hyclone) and 50 μg/mL streptomycin (Hyclone). All cells were cultured to have a confluency of about 80% to 90% under the conditions of 37° C. and 5% Co2.
In order to measure FXR transcription factor activity, HepG2 cells (1×10^5 cells/well) were cultured in a 48-well cell culture plate (SPL Life Science Co., Gyeonggido, Korea) for 20 hours and then transduced using Lipofectamin L3000 (Invitrogen, San Diego, CA, USA). Luciferase is an enzyme that catalyzes light-emitting reactions. A plasmid in which the firefly luciferase gene was fused to farnesol X receptor (FXR) and a plasmid in which the renilla luciferase gene was fused to thymidine kinase (TK) were used for transduction. Reacted were 25 μL of serum and antibiotic-free Opti-MEM® (Life Technologies, Grand Island, NY) and 0.5 μL of Lipofectamin L3000 per 0.5 μg of FXR-firefly luciferase plasmid and 10 ng of TK-renilla luciferase plasmid, and the cells were reacted with the reaction mixture for 24 hours. Thereafter, DMEM medium containing 0.1% serum was treated with a drug for 24 hours. After the reaction was completed, the drug-treated culture medium was discarded, and lysis buffer was added at 0.4 ml/well to remove the cells, then the cells were dispensed into a 96-well white plate (SPL Life Science Co.), and the luminescence level was measured using the Dual-glo Luciferase Assay System (Promega, Madison, WI, USA). For the firefly luciferase activity (to see the level of FXR expression) and renilla luciferase activity (to provide a reference value by showing constant expression), the luminescence level was measured using the GloMax Multi Detection System (Promega) and then the relative ratio (firefly luciferase activity/renilla luciferase activity) was calculated.

Regarding `COC(=O)[C@H](Cc1ccccc1)NC(=O)/C=C/c1ccc(OCc2c(-c3c(Cl)cccc3Cl)noc2C(C)C)cc1` [KS-037, methyl (E)-(3-(4-((3-(2,6-dichlorophenyl)-5-isopropylisoxazol-4-yl)methoxy)phenyl)acryloyl)-L-phenylalaninate], the fold induction at 10 µM is 7.95 and the “FXR activating effect compared with GW4064” value is “superior to GW4064”.

Consider `CCOC(=O)[C@H](C)NC(=O)/C=C/c1ccc(OCc2c(-c3ccccc3)noc2C)cc1` [KS-027, ethyl (E)-(3-(4-((5-methyl-3-phenylisoxazol-4-yl)methoxy)phenyl)acryloyl)-L-alaninate], for which the fold induction at 10 µM is 1.04. Same read-out and setting: for `Cc1onc(-c2c(Cl)cccc2Cl)c1COc1ccc(/C=C/C(=O)N[C@H](C(=O)O)C(C)C)cc1` [KS-035, (E)-(3-(4-((3-(2,6-dichlorophenyl)-5-methylisoxazol-4-yl)methoxy)phenyl)acryloyl)-L-valine] the value was 1.65; for `COC(=O)CCNC(=O)/C=C/c1ccc(OCc2c(-c3c(Cl)cccc3Cl)noc2C)cc1` [KS-044, methyl (E)-3-(3-(4-((3-(2,6-dichlorophenyl)-5-methylisoxazol-4-yl)methoxy)phenyl)acrylamido)propanoate], 2.21. Take `CCOC(=O)CNC(=O)/C=C/c1ccc(OCc2cccc(OC(F)(F)F)c2)cc1` [KS-007, ethyl (E)-(3-(4-((3-(trifluoromethoxy)benzyl)oxy)phenyl)acryloyl)glycinate]: the fold induction at 10 µM was 1.02. On to `CCOC(=O)CNC(=O)/C=C/c1ccc(OCc2cc(F)c(F)cc2F)cc1` [KS-009, ethyl (E)-(3-(4-((2,4,5-trifluorobenzyl)oxy)phenyl)acryloyl)glycinate], for which the fold induction at 10 µM worked out at 1.44.

With `CCOC(=O)CNC(=O)/C=C/c1ccc(OCc2ccc([N+](=O)[O-])cc2)cc1` [KS-006, ethyl (E)-(3-(4-((4-nitrobenzyl)oxy)phenyl)acryloyl)glycinate], the fold induction at 10 µM was 1.38. Same read-out and setting: with `Cc1onc(-c2c(Cl)cccc2Cl)c1COc1ccc(/C=C/C(=O)NCC(=O)O)cc1` [KS-023, (E)-(3-(4-((3-(2,6-dichlorophenyl)-5-methylisoxazol-4-yl)methoxy)phenyl)acryloyl)glycine] the figure was 1.93. `O=C(O)CNC(=O)/C=C/c1ccc(OCc2ccc(OC(F)(F)F)cc2)cc1` [KS-015, (E)-(3-(4-((4-(trifluoromethoxy)benzyl)oxy)phenyl)acryloyl)glycine]: the fold induction at 10 µM stood at 2.65.

For the compound `O=C(O)CNC(=O)/C=C/c1ccc(OCc2ccc([N+](=O)[O-])cc2)cc1` [KS-018, (E)-(3-(4-((4-nitrobenzyl)oxy)phenyl)acryloyl)glycine], the fold induction at 10 µM stood at 1.28. As for `Cc1onc(-c2ccccc2)c1COc1ccc(/C=C/C(=O)N[C@H](C(=O)O)C(C)C)cc1` [KS-036, (E)-(3-(4-((5-methyl-3-phenylisoxazol-4-yl)methoxy)phenyl)acryloyl)-L-valine], the fold induction at 10 µM turned out to be 1.24. Consider `CCOC(=O)CNC(=O)/C=C/c1ccc(OCc2ccc(-c3ccccc3)cc2)cc1` [KS-004, ethyl (E)-(3-(4-([1,1′-biphenyl]-4-ylmethoxy)phenyl)acryloyl)glycinate], for which the fold induction at 10 µM worked out at 2.03. Regarding `Cc1onc(-c2ccccc2)c1COc1ccc(/C=C/C(=O)N[C@@H](Cc2ccccc2)C(=O)O)cc1` [KS-042, (E)-(3-(4-((5-methyl-3-phenylisoxazol-4-yl)methoxy)phenyl)acryloyl)-L-phenylalanine], the fold induction at 10 µM was 1.41. With `Cc1onc(-c2ccccc2)c1COc1ccc(/C=C/C(=O)N[C@@H](C)C(=O)O)cc1` [KS-030, (E)-(3-(4-((5-methyl-3-phenylisoxazol-4-yl)methoxy)phenyl)acryloyl)-L-alanine], the fold induction at 10 µM came to 0.82. On the same count and under the same terms, with `Cc1onc(-c2ccccc2)c1COc1ccc(/C=C/C(=O)NCC(=O)O)cc1` [KS-024, (E)-(3-(4-((5-methyl-3-phenylisoxazol-4-yl)methoxy)phenyl)acryloyl)glycine] the figure was 1.68. Take `CCOC(=O)[C@H](C)NC(=O)/C=C/c1ccc(OCc2c(-c3c(Cl)cccc3Cl)noc2C(C)C)cc1` [KS-025, ethyl (E)-(3-(4-((3-(2,6-dichlorophenyl)-5-isopropylisoxazol-4-yl)methoxy)phenyl)acryloyl)-L-alaninate]: the fold induction at 10 µM was 10.9 and the “FXR activating effect compared with GW4064” value is “superior to GW4064”. For the compound `O=C(O)CNC(=O)/C=C/c1ccc(OCc2cccc(OC(F)(F)F)c2)cc1` [KS-019, (E)-(3-(4-((3-(trifluoromethoxy)benzyl)oxy)phenyl)acryloyl)glycine], the fold induction at 10 µM is 1.19. Take `Cc1onc(-c2c(Cl)cccc2Cl)c1COc1ccc(/C=C/C(=O)N[C@@H](C)C(=O)O)cc1` [KS-029, (E)-(3-(4-((3-(2,6-dichlorophenyl)-5-methylisoxazol-4-yl)methoxy)phenyl)acryloyl)-L-alanine]: the fold induction at 10 µM came to 1.71.

Regarding `CC(C)c1onc(-c2c(Cl)cccc2Cl)c1COc1ccc(/C=C/C(=O)NCCC(=O)O)cc1` [KS-046, (E)-3-(3-(4-((3-(2,6-dichlorophenyl)-5-isopropylisoxazol-4-yl)methoxy)phenyl)acrylamido)propanoic acid], the fold induction at 10 µM stood at 11.4 and the “FXR activating effect compared with GW4064” value is “superior to GW4064”. Turning to `O=C(O)CNC(=O)/C=C/c1ccc(OCc2ccccc2)cc1` [KS-014, (E)-(3-(4-(benzyloxy)phenyl)acryloyl)glycine], the fold induction at 10 µM was 1.42.

On to `CCOC(=O)CNC(=O)/C=C/c1ccc(O)cc1` [KS-001, ethyl (E)-(3-(4-hydroxyphenyl)acryloyl)glycinate], for which the fold induction at 10 µM was found to be 1.22.

As to `CCOC(=O)CNC(=O)/C=C/c1ccc(OCc2ccc(F)cc2)cc1` [KS-005, ethyl (E)-(3-(4-((4-fluorobenzyl)oxy)phenyl)acryloyl)glycinate], the fold induction at 10 µM worked out at 1.21. In the case of `Cc1onc(-c2ccccc2)c1COc1ccc(/C=C/C(=O)NCCC(=O)O)cc1` [KS-048, (E)-3-(3-(4-((5-methyl-3-phenylisoxazol-4-yl)methoxy)phenyl)acrylamido)propanoic acid], the fold induction at 10 µM was 1.13. Consider `CCOC(=O)CNC(=O)/C=C/c1ccc(OCc2ccc(OC(F)(F)F)cc2)cc1` [KS-003, ethyl (E)-(3-(4-((4-(trifluoromethoxy)benzyl)oxy)phenyl)acryloyl)glycinate], for which the fold induction at 10 µM stood at 1.1. The same measure, in the same setting: with `COC(=O)[C@H](Cc1ccccc1)NC(=O)/C=C/c1ccc(OCc2c(-c3ccccc3)noc2C)cc1` [KS-039, methyl (E)-(3-(4-((5-methyl-3-phenylisoxazol-4-yl)methoxy)phenyl)acryloyl)-L-phenylalaninate] the figure was 1.06.

Regarding `O=C(O)CNC(=O)/C=C/c1ccc(OCc2cccc([N+](=O)[O-])c2)cc1` [KS-020, (E)-(3-(4-((3-nitrobenzyl)oxy)phenyl)acryloyl)glycine], the fold induction at 10 µM was 1.39.
